# Measured values as given in US20240217966A1, “PHARMACEUTICAL COMPOSITION CONTAINING GLP-1 RECEPTOR AGONIST HAVING FUSED RING” (Shionogi & Co., Ltd., priority 2021, published 2024).
# Molecular target: T1, Human GLP-1 receptor (Homo sapiens, UniProt P43220)
# T1 construct: expressed in transfected cells
# Assay: Measurement of GLP-1 receptor agonist activity (cAMP assay)
# Format: cell-based
# Conditions: for Emax: CHO-K1, hGLP-1R/CHO-K1 cells, cAMP, 100% = human GLP-1 (7-36) at 2 nM, 0% = DMSO only, read-out: Emax(%); for EC50: hGLP-1R/CHO-K1 cells, cAMP increase, 37° C. 1 hour
# Protocol: Test Example 1: (Measurement of GLP-1 Receptor Agonist Activity)
# Human GLP-1 receptor stably expressing cells (hGLP-1R/CHO-K1 cells) are cultured in an α-MEM medium (Sigma) containing 10% FBS (Hyclone), 2% GlutaMAX (Gibco), 1% G418 (Nacalai Tesque), and 1% Penicillin-Streptomycin Mixed Solution (Sigma) at 37° C. under 5% CO2 conditions, and recovered by treating a 10 fold diluted 5.0 g/l-trypsin/5.3 mmol/l-EDTA solution (Nacalai Tesque) and cryopreserved.
# A DMSO solution containing the compound of the present invention or human GLP-1 (7-36) (Phoenix Pharmaceuticals) is dispensed into a 384-well microplate (Greiner) at 62.5 nL/well, and in addition, 400 μM Forskolin (Nacalai Tesque) is dispensed therein at 7.5 nL/well. Subsequently, the frozen GLP-1 R/CHO-K1 cells are thawed in a thermostatic bath at 37° C., suspended in HBSS buffer (GIBCO) containing 0.1% BSA (Sigma), 20 mM HEPES (GIBCO), 0.1 mM IBMX (Sigma), and 0.2 mM RO20-1724 (Calbiochem) at 2×10^4 cells/mL, and the cell suspension is added at 6 μL/well. The solution was incubated at 37° C. for 1 hour and intracellular cAMP concentration is measured using cAMP Gs dynamic kit (Cisbio) according to the protocol attached to the product. Specifically, cAMP-d2 and Anti-cAMP-Cryptate are each added in an amount of 3 μL/well, the mixture is incubated at room temperature for 1 hour, and time-resolved fluorescence is measured using PHERAstar (BMG Labtech).
# The dilution concentration or the dilution solvent are changed as necessary.
# The compounds of the present invention were tested essentially as described above.
# T1 sequence (P43220 24-463): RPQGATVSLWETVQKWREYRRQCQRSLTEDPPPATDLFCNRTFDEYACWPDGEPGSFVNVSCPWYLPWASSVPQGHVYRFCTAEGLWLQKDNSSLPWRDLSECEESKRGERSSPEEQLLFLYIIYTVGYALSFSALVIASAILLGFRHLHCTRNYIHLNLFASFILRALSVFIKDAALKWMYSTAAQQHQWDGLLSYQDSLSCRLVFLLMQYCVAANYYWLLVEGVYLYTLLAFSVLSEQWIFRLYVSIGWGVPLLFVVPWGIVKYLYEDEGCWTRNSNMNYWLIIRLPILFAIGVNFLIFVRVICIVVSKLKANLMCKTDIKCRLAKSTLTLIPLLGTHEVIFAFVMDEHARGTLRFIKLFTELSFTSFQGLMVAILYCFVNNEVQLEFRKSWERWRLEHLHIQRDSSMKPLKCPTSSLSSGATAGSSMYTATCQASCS
SMILES,Emax [%],EC50 [nM]
CS(=O)(=O)c1ccc(COc2cc3c(cc2C(F)(F)F)CCN(Cc2nc4ccc(C(=O)O)cc4n2C[C@@H]2CCO2)C3)cc1 [Compound I-086],106,17.9
O=C(O)c1ccc2nc(CN3CCc4cc(C(F)(F)F)c(OCc5ccccc5-c5ccccc5)cc4C3)n(C[C@@H]3CCO3)c2c1 [Compound I-088],147,7.81
O=C(O)c1ccc2nc(CN3CCc4cc(C(F)(F)F)c(OCc5ccccc5Cl)cc4C3)n(C[C@@H]3CCO3)c2c1 [Compound I-090],106,6.6
O=C(O)c1ccc2nc(CN3CCc4cc(C(F)(F)F)c(OCc5ccc(F)c(F)c5)cc4C3)n(C[C@@H]3CCO3)c2c1 [Compound I-093],111,16.6
O=C(O)c1ccc2nc(CN3CCc4cc(C(F)(F)F)c(OCc5ccc(F)c(F)c5F)cc4C3)n(C[C@@H]3CCO3)c2c1 [Compound I-094],102,28.5
O=C(O)c1ccc2nc(CN3CCc4cc(C(F)(F)F)c(OCc5cc(F)c(F)cc5F)cc4C3)n(C[C@@H]3CCO3)c2c1 [Compound I-095],112,10.5
O=C(O)c1ccc2nc(CN3CCc4cc(C(F)(F)F)c(OCc5ccc(F)cc5Cl)cc4C3)n(C[C@@H]3CCO3)c2c1 [Compound I-097],105,2.42
O=C(O)c1ccc2nc(CN3CCc4cc(C(F)(F)F)c(OCc5ccc(Cl)c(F)c5)cc4C3)n(C[C@@H]3CCO3)c2c1 [Compound I-098],120,10.9
O=C(O)c1ccc2nc(CN3CCc4cc(C(F)(F)F)c(OCc5ccc(Cl)cc5Cl)cc4C3)n(C[C@@H]3CCO3)c2c1 [Compound I-099],114,1.43
O=C(O)c1ccc2nc(CN3CCc4cc(C(F)(F)F)c(OCc5ccc(Cl)cc5C(F)(F)F)cc4C3)n(C[C@@H]3CCO3)c2c1 [Compound I-100],90.7,95.2
O=C(O)c1ccc2nc(CN3CCc4cc(C(F)(F)F)c(OCc5c(F)cc(Cl)cc5F)cc4C3)n(C[C@@H]3CCO3)c2c1 [Compound I-101],113,2.23
O=C(O)c1ccc2nc(CN3CCc4cc(C(F)(F)F)c(OCc5ccc(C6CC6)cc5)cc4C3)n(C[C@@H]3CCO3)c2c1 [Compound I-102],106,5.09
N#Cc1ccc(COc2cc3c(cc2C(F)(F)F)CCN(Cc2nc4ccc(C(=O)O)cc4n2C[C@@H]2CCO2)C3)cc1 [Compound I-103],113,5.6
COc1ccc(COc2cc3c(cc2C(F)(F)F)CCN(Cc2nc4ccc(C(=O)O)cc4n2C[C@@H]2CCO2)C3)cc1 [Compound I-104],102,4.78
O=C(O)c1ccc2nc(CN3CCc4cc(C(F)(F)F)c(OCc5ccc(F)cc5F)cc4C3)n(C[C@@H]3CCO3)c2c1 [Compound I-106],101,6.88
O=C(O)c1ccc2nc(CN3CCc4cc(C(F)(F)F)c(OCc5c(F)cc(F)cc5F)cc4C3)n(C[C@@H]3CCO3)c2c1 [Compound I-107],101,3.5
Cc1cc(C(=O)O)cc2c1nc(CN1CCc3cc(C(F)(F)F)c(OCc4ccc(Cl)cc4F)cc3C1)n2C[C@@H]1CCO1 [Compound I-108],108,8.33
O=C(O)c1ccc2nc(CN3CCc4cc(C(F)(F)F)c(OCc5ccc(Cl)cc5F)nc4C3)n(C[C@@H]3CCO3)c2c1 [Compound I-110],114,–
C[C@H]1c2cc(OCc3ccc(C#N)cc3)c(C(F)(F)F)cc2CCN1Cc1nc2ccc(C(=O)O)cc2n1C[C@@H]1CCO1 [Compound I-111],126,2.51
C[C@H]1c2cc(OCc3ccc(C#N)cc3)c(C(F)(F)F)cc2CCN1Cc1nc2c(F)cc(C(=O)O)cc2n1C[C@@H]1CCO1 [Compound I-112],114,1.1
C[C@H]1c2cc(OCc3ccc(C#N)cc3)c(C(F)(F)F)cc2CCN1Cc1nc2ccc(C(=O)O)c(F)c2n1C[C@@H]1CCO1 [Compound I-113],124,1.46
